System: not listed separately
Experiment: logP by HPLC, reversed-phase column (C 18), EEC Directive 79/831 Annex V.A8
Assay type: physicochemical
Conditions: reversed-phase HPLC column (C 18), acidic range pH 2.3, 0.1% aqueous phosphoric acid/acetonitrile gradient, 43° C.
Protocol: The logP values given in the preparation examples and tables above are determined in accordance with EEC Directive 79/831 Annex V.A8 by HPLC (High Performance Liquid Chromatography) using a reversed-phase column (C 18). Temperature: 43° C. The determination is carried out in the acidic range at pH 2.3 using the mobile phases 0.1% aqueous phosphoric acid and acetonitrile; linear gradient from 10% acetonitrile to 90% acetonitrile. The calibration is carried out using unbranched alkan-2-ones (having 3 to 16 carbon atoms), with known logP values (determination of the logp values by the retention times using linear interpolation between two successive alkanones).

Row | SMILES | chromatographic logP
1 | CCC(CC)c1ccccc1NC(=O)c1c(C)nn(C)c1F [Example 2, N-[2-(1-ethylpropyl)phenyl]-5-fluoro-1,3-dimethyl-1H-pyrazol-4-carboxamide] | 3.01
2 | Cc1nn(C)c(F)c1C(=O)Nc1ccccc1C=CC1CC1(F)F (centres unmarked) [Example 4, N-{2-[2-(2,2-difluorocyclopropyl)ethenyl]-phenyl}-5-fluoro-1,3-dimethyl-1H-pyrazol-4-carboxamide] | 2.59
3 | CCCC/C=C(\C)c1ccccc1NC(=O)c1c(C)nn(C)c1F [Example 5, 5-fluoro-1,3-dimethyl-N-[2-(1-methyl-1-hexenyl)phenyl]-1H-pyrazol-4-carboxamide] | 4.36
4 | C=C(c1ccccc1NC(=O)c1c(C)nn(C)c1F)C1CCCCC1 [Example I-9] | 4.36
5 | C=C(c1ccccc1NC(=O)c1c(C)nn(C)c1F)C(C)C [Example I-10] | 3.37
6 | C=C(c1cc(Cl)ccc1NC(=O)c1c(C)nn(C)c1F)C(C)C [Example I-16] | 4.11
7 | CCCC(C)c1ccccc1NC(=O)c1c(C)nn(C)c1F (centres unmarked) [Example I-17] | 3.01
8 | Cc1nn(C)c(F)c1C(=O)Nc1ccccc1C(C)C(C)C (centres unmarked) [Example I-18] | 2.92
9 | Cc1nn(C)c(F)c1C(=O)Nc1ccc(Cl)cc1C(C)C(C)C (centres unmarked) [Example I-19] | 3.43
10 | C=Cc1ccccc1NC(=O)c1c(C)nn(C)c1F [Example I-20] | 1.92
11 | Cc1nn(C)c(F)c1C(=O)Nc1ccccc1C(C)CC(C)C (centres unmarked) [Example I-21] | 3.26
12 | CCCCCC(C)c1ccccc1NC(=O)c1c(C)nn(C)c1F (centres unmarked) [Example I-22] | 3.83
13 | C=C(C)c1ccccc1NC(=O)c1c(C)nn(C)c1F [Example I-23] | 2.57
14 | C/C=C(\CC)c1ccccc1NC(=O)c1c(C)nn(C)c1F [Example I-24] | 3.45
15 | Cc1nn(C)c(F)c1C(=O)Nc1ccc(Cl)cc1C(C)CC(C)C (centres unmarked) [Example I-25] | 3.82
16 | CCC(C)CC(C)c1ccccc1NC(=O)c1c(C)nn(C)c1F (centres unmarked) [Example I-26] | 3.67
17 | Cc1nn(C)c(F)c1C(=O)Nc1ccccc1C(C)CC1CCCC1 (centres unmarked) [Example I-27] | 3.82
18 | CCC(CC(C)C)c1ccccc1NC(=O)c1c(C)nn(C)c1F (centres unmarked) [Example I-28] | 3.73
19 | CCC(C)C(CC)c1ccccc1NC(=O)c1c(C)nn(C)c1F (centres unmarked) [Example I-29] | 3.74
20 | CCCCCCCCC(C)c1ccccc1NC(=O)c1c(C)nn(C)c1F (centres unmarked) [Example I-30] | 5.29
21 | CCCCC(CC)c1ccccc1NC(=O)c1c(C)nn(C)c1F (centres unmarked) [Example I-31] | 3.85
22 | CCCC(CC)c1ccccc1NC(=O)c1c(C)nn(C)c1F (centres unmarked) [Example I-32] | 3.42
23 | CCC(c1ccccc1NC(=O)c1c(C)nn(C)c1F)C1CCCCC1 (centres unmarked) [Example I-33] | 4.34
24 | Cc1nn(C)c(F)c1C(=O)Nc1ccccc1C(C)CCCC(C)C (centres unmarked) [Example I-34] | 4.22
25 | CCCC(C)CC(C)c1ccccc1NC(=O)c1c(C)nn(C)c1F (centres unmarked) [Example I-35] | 4.11
26 | Cc1nn(C)c(F)c1C(=O)Nc1ccccc1C(C)CCC(C)C (centres unmarked) [Example I-36] | 3.76
27 | CC(C)=CC(C)CCC(C)c1ccccc1NC(=O)c1c(C)nn(C)c1F (centres unmarked) [Example I-37] | 4.49

Row | SMILES | chromatographic logP
28 | CCC(c1ccccc1NC(=O)c1c(C)nn(C)c1F)C(C)C (centres unmarked) [Example I-38] | 3.37
29 | CCCCC(c1ccccc1NC(=O)c1c(C)nn(C)c1F)C(C)C (centres unmarked) [Example I-39] | 4.24
30 | CCC(C)C(C)c1ccccc1NC(=O)c1c(C)nn(C)c1F (centres unmarked) [Example I-40] | 3.28
31 | Cc1nn(C)c(F)c1C(=O)Nc1ccc(F)cc1C(C)CC(C)C (centres unmarked) [Example I-41] | 3.32
32 | Cc1nn(C)c(F)c1C(=O)Nc1ccccc1C(C)C1CCCCC1 (centres unmarked) [Example I-42] | 3.82
33 | CCCC(C)c1cc(F)ccc1NC(=O)c1c(C)nn(C)c1F (centres unmarked) [Example I-43] | 3.05
34 | Cc1nn(C)c(F)c1C(=O)Nc1c(F)cccc1C(C)CC(C)C (centres unmarked) [Example I-44] | 3.16
35 | Cc1nn(C)c(F)c1C(=O)Nc1ccccc1C(C)CC1CCCCC1 (centres unmarked) [Example I-45] | 4.2
36 | Cc1nn(C)c(F)c1C(=O)Nc1ccccc1C(C)(F)C(C)C (centres unmarked) [Example I-46] | 3.09
37 | Cc1nn(C)c(F)c1C(=O)Nc1ccccc1C(C)(F)CCCCCl (centres unmarked) [Example I-47] | 4.01
38 | CCC(C)C(C)(F)c1ccccc1NC(=O)c1c(C)nn(C)c1F (centres unmarked) [Example I-48] | 3.44
39 | Cc1nn(C)c(F)c1C(=O)Nc1ccccc1C(C)(F)CC(C)C (centres unmarked) [Example I-49] | 3.47
40 | CCCC(C)c1cccc(F)c1NC(=O)c1c(C)nn(C)c1F (centres unmarked) [Example I-50] | 2.86
41 | Cc1nn(C)c(F)c1C(=O)Nc1ccccc1C#CCC1CCCCC1 [Example I-52] | 5.08
42 | Cc1nn(C)c(F)c1C(=O)Nc1ccccc1C#CC(C)C [Example I-53] | 3.59
43 | Cc1nn(C)c(F)c1C(=O)Nc1c(C(C)CC(C)C)cccc1C(C)CC(C)C (centres unmarked) [Example I-54] | 4.9
44 | Cc1nn(C)c(F)c1C(=O)Nc1ccccc1I [Example V-1, 5-fluoro-N-(2-iodophenyl)-1,3-dimethyl-1H-pyrazol-4-carboxamide] | 2.44
45 | CCC(O)(CC)c1ccccc1NC(=O)c1c(C)nn(C)c1F [IV-1, N-[2-(1-ethyl-1-hydroxypropyl)phenyl]-5-fluoro-1,3-dimethyl-1H-pyrazol-4-carboxamide] | 2.47
46 | CCCC(C)(O)c1ccccc1NC(=O)c1c(C)nn(C)c1F (centres unmarked) [IV-2] | 2.4
47 | CCCCCC(C)(O)c1ccccc1NC(=O)c1c(C)nn(C)c1F (centres unmarked) [IV-3] | 3.13
48 | Cc1nn(C)c(F)c1C(=O)Nc1ccccc1C(C)(O)C1CCCCC1 (centres unmarked) [IV-4] | 3.1
49 | Cc1nn(C)c(F)c1C(=O)Nc1ccccc1C(C)(O)C(C)C (centres unmarked) [IV-5] | 2.41
50 | Cc1nn(C)c(F)c1C(=O)Nc1ccccc1C(C)(O)CC(C)C (centres unmarked) [IV-6] | 2.68
51 | Cc1nn(C)c(F)c1C(=O)Nc1ccc(Cl)cc1C(C)(O)C(C)C (centres unmarked) [IV-12] | 2.99
52 | CCC(O)(CC(C)C)c1ccccc1NC(=O)c1c(C)nn(C)c1F (centres unmarked) [IV-13] | 3.11
53 | CC(=O)c1ccccc1NC(=O)c1c(C)nn(C)c1F [VIII-1, N-(2-acetylphenyl)-5-fluoro-1,3-dimethyl-1H-pyrazol-4-carboxamide] | 2.15

System: Pyrenophora teres
Experiment: Pyrenophora teres test (barley)/protective
Assay type: in vivo
Conditions: protective, application rate 250 g/ha, evaluation 7 days after inoculation
Protocol: To produce a suitable preparation of active compound, 1 part by weight of active compound is mixed with the stated amount of solvent and emulsifier, and the concentrate is diluted with water to the desired concentration.
To test for protective activity, young plants are sprayed with the preparation of active compound at the stated application rate. After the spray coating has dried on, the plants are sprayed with a conidia suspension of Pyrenophora teres. The plants remain in an incubation cabin at 20° C. and 100% relative atmospheric humidity for 48 hours.
The plants are then placed in a greenhouse at a temperature of about 20° C. and a relative atmospheric humidity of about 80%.
Evaluation is carried out 7 days after the inoculation. 0% means an efficacy which corresponds to that of the control, whereas an efficacy of 100% means that no infection is observed.

Row | SMILES | Efficacy in % [%]
54 | CCCC(C)c1ccccc1NC(=O)c1c(C)nn(C)c1F (centres unmarked) [drawing 95] | 100
55 | Cc1nn(C)c(F)c1C(=O)Nc1ccccc1C(C)C(C)C (centres unmarked) [drawing 96] | 100

System: Podosphaera leucotricha
Experiment: Podosphaera test (apple)/protective
Assay type: in vivo
Conditions: protective, application rate 100 g/ha, evaluation 10 days after inoculation
Protocol: (§1) To produce a suitable preparation of active compound, 1 part by weight of active compound is mixed with the stated amounts of solvent and emulsifier, and the concentrate is diluted with water to the desired concentration.
To test for protective activity, young plants are sprayed with the preparation of active compound at the stated application rate. After the spray coating has dried on, the plants are inoculated with an aqueous spore suspension of the apple mildew pathogen Podosphaera leucotricha. The plants are then placed in a greenhouse at about 23° C. and a relative atmospheric humidity of about 70%.
Evaluation is carried out 10 days after the inoculation. 0% means an efficacy which corresponds to that of the control, whereas an efficacy of 100% means that no infection is observed.

Row | SMILES | Efficacy in % [%]
56 | C=C(c1ccccc1NC(=O)c1c(C)nn(C)c1F)C(C)C [drawing 97] | 90
57 | CCCC(C)c1ccccc1NC(=O)c1c(C)nn(C)c1F (centres unmarked) [drawing 98] | 100
58 | Cc1nn(C)c(F)c1C(=O)Nc1ccccc1C(C)C(C)C (centres unmarked) [drawing 99] | 100
59 | Cc1nn(C)c(F)c1C(=O)Nc1ccc(Cl)cc1C(C)C(C)C (centres unmarked) [drawing 100] | 100

System: Altemaria solani
Experiment: Alternaria test (tomato)/protective
Assay type: in vivo
Conditions: protective, application rate 750 g/ha, evaluation 7 days after inoculation
Protocol: as §1
To test for protective activity, young tomato plants are sprayed with the preparation of active compound at the stated application rate. 1 day after the treatment, the plants are inoculated with a spore suspension of Altemaria solani and then remain at 100% rel. humidity and 20° C. for 24 h. The plants then remain at 96% rel. atmospheric humidity and a temperature of 20° C.
Evaluation was carried out 7 days after the inoculation. 0% means an efficacy which corresponds to that of the control, whereas an efficacy of 100% means that no infection is observed.

Row | SMILES | Efficacy in % [%]
60 | CCCC(C)c1ccccc1NC(=O)c1c(C)nn(C)c1F (centres unmarked) [drawing 101] | 95
61 | Cc1nn(C)c(F)c1C(=O)Nc1ccccc1C(C)C(C)C (centres unmarked) [drawing 102] | 95
62 | Cc1nn(C)c(F)c1C(=O)Nc1ccccc1C(C)CC(C)C (centres unmarked) [drawing 103] | 100
